In patent US6545007B2, “Methods for inhibiting the transmission of HIV using topically applied substituted 6-benzyl-4-oxopyrimidines” (Idenix (Cayman) Limited, priority 2000, dated 2003) one finds EC50, SI and CC50 data, which are given here for 25 compounds.

For one data set, the system named is HIV-1 (IIIB strain). Type of data set: cell-based. To be noted: for EC50: anti-HIV-1 activity; for SI: selectivity index (CC50/EC50). As for the experimental part: Compounds. Compounds were solubilized in DMSO at 200 mM and then diluted into culture medium.
(§1) Cells and viruses. MT-4, C8166,H9/IIIB and CEM cells were grown at 37° C. in a 5% CO2 atmosphere in RPMI 1640 medium, supplemented with 10% fetal calf serum (FCS), 100 IU/mL penicillin and 100 μg/mL streptomycin. Cell cultures were checked periodically for the absence of mycoplasma contamination with a MycoTect Kit (Gibco). Human immunodeficiency virus type-I (HIV-1, IIIB strain) was obtained from supernatants of persistently infected H9/IIIB cells.
HIV Titration. Titration of HIV was performed in C8166 cells by the standard limiting dilution method (dilution 1:2, four replica wells per dilution) in 96-well plates. The infectious virus titre was determined by light microscope scoring of cytopathicity after 4 days of incubation and the virus titres were expressed as CCID50/mL.
(§2) Anti-HIV Assays. Activity of the compounds against HIV-1 and HIV-2 multiplication in acutely infected cells was based on the inhibition of virus-induced cytopathicity in MT-4 and C8166 cells, respectively. Briefly, 50 μL of culture medium containing 1×10^4 cells were added to each well of flat-bottom microtiter trays containing 50 μl of culture medium with or without various concentrations of the test compounds. Then 20 μL of an HIV suspension containing 100 CCID50 were added. After a 4-day incubation at 37° C., the number of viable cells was determined by the 3-(4,5-dimethylthiazol-[…])-2,5-diphenyltetrazolium bromide (MTT) method. Cytotoxicity of the compounds was evaluated in parallel with their antiviral activity. It was based on the viability of mock-infected cells, as monitored by the MTT method.

A further data set relates to mock-infected MT-4 cells. Description: Cytotoxicity: viability of mock-infected cells by the MTT method. Type of data set: cell-based, human. As for the experimental part: as §1, §2
[1] abbreviates: acutely infected MT-4 cells, MTT.

Read-outs that look alike come from different tables or passages of the source. Where only a bound is given, the exact number is not on record here.

In general, EC50 refers to the concentration needed to bring the measured effect to its halfway point. A lower EC50 goes with greater potency. As usually defined, the CC50 is the concentration at which the toxic effect on the cells reaches its halfway point. A high value points to lower toxicity to the cells. As for `O=c1cc(Cc2c(F)cccc2F)nc(NC2CCCC2)[nH]1` [MC 1022], the EC50 in the data set with HIV-1 (IIIB strain) (HIV-1-infected MT-4 cells) was 0.09 µM. For the same compound, in the data set on HIV-1 (IIIB strain), the SI was >2,222. Further, the CC50 in the data set on mock-infected MT-4 cells is more than 200 µM.
In turn, `CCc1c(Cc2c(F)cccc2F)nc(SC(C)C)[nH]c1=O` [MC 1037] had an EC50 with HIV-1 (IIIB strain) (HIV-1-infected MT-4 cells) of 0.2 µM. This compound also came in with an SI in the data set on HIV-1 (IIIB strain) of 326. This compound also had a CC50 with mock-infected MT-4 cells of 65 µM.
The matching figures for `CCc1c(Cc2c(F)cccc2F)nc(SC(C)CC)[nH]c1=O` (centres unmarked) [MC 1038]: 0.1 µM, >2,000 and more than 200 µM.
In the data set on HIV-1 (IIIB strain) (HIV-1-infected MT-4 cells), `CC(C)Sc1nc(Cc2c(F)cccc2F)c(C(C)C)c(=O)[nH]1` [MC 1039] yielded an EC50 of 0.4 µM. This compound registered an SI with HIV-1 (IIIB strain) of more than 500. In the data set with mock-infected MT-4 cells, this compound showed a CC50 of more than 200 µM.
`CCC(C)Sc1nc(Cc2cc(F)cc(F)c2)cc(=O)[nH]1` (centres unmarked) [MC 1041] came in with an EC50 with HIV-1 (IIIB strain) (HIV-1-infected MT-4 cells) of 1.4 µM. In the data set on HIV-1 (IIIB strain), this compound yielded an SI of more than 143. In the data set on mock-infected MT-4 cells, this compound gave a CC50 of more than 200 µM.
As for `COCCNc1nc(Cc2c(F)cccc2F)cc(=O)[nH]1` [MC 1043], the concentration for a half-maximal effect (EC50) with HIV-1 (IIIB strain) (HIV-1-infected MT-4 cells) turned out to be 0.8 µM. The same compound yielded an SI in the data set with HIV-1 (IIIB strain) of more than 250. In the data set on mock-infected MT-4 cells, this compound gave a CC50 of more than 200 µM.
`CC(C)CSc1nc(C(C)c2c(F)cccc2F)cc(=O)[nH]1` (centres unmarked) [MC 1044] had an EC50 in the data set with HIV-1 (IIIB strain) (HIV-1-infected MT-4 cells) of 0.05 µM. In addition, the SI with HIV-1 (IIIB strain) was >4,000. The compound further gave a CC50 in the data set on mock-infected MT-4 cells of more than 200 µM.
The matching figures for `CCCCSc1nc(C(C)c2c(F)cccc2F)cc(=O)[nH]1` (centres unmarked) [MC 1045]: 0.07 µM, 2,857 and more than 200 µM.
The matching figures for `CC(c1cc(=O)[nH]c(NC2CCCC2)n1)c1c(F)cccc1F` (centres unmarked) [MC 1048]: 0.03 µM, 2,500 and 75 µM.
Taken in the same sequence, the figures for `O=c1cc(Cc2c(F)cccc2F)nc(NC2CCCCC2)[nH]1` [MC 1049] were 0.14 µM, 471 and 66 µM.
For the compound `Cc1c(Cc2c(F)cccc2F)nc(NC2CCCC2)[nH]c1=O` [MC 1050], the midpoint of the response in the data set with HIV-1 (IIIB strain) (HIV-1-infected MT-4 cells), the EC50, lay at 0.02 µM. Moreover, the SI in the data set with HIV-1 (IIIB strain) is recorded as >10,000. In addition, the CC50 with mock-infected MT-4 cells is more than 200 µM.
Taken in the same sequence, the figures for `CSc1nc(C(C)c2c(F)cccc2F)c(C)c(=O)[nH]1` (centres unmarked) [MC 1060] were 0.04 µM, >5,000 and more than 200 µM.
`CCCCNc1nc(Cc2c(F)cccc2F)cc(=O)[nH]1` [MC 1077] returned an EC50 in the data set on HIV-1 (IIIB strain) (HIV-1-infected MT-4 cells) of 0.1 µM. Moreover, the SI with HIV-1 (IIIB strain) is 1,000. Besides, the CC50 in the data set with mock-infected MT-4 cells was 100 µM.
As to `CCCNc1nc(Cc2c(F)cccc2F)cc(=O)[nH]1` [MC 1078], the EC50 in the data set with HIV-1 (IIIB strain) (HIV-1-infected MT-4 cells) is 0.11 µM. Besides, the SI in the data set with HIV-1 (IIIB strain) is on record as 1,818. In the data set on mock-infected MT-4 cells, this compound returned a CC50 of 200 µM.
In the case of `O=c1cc(Cc2c(F)cccc2F)nc(OC2CCCC2)[nH]1` [MC 1103], it took 20 µM to reach a half-maximal effect with HIV-1 (IIIB strain) (HIV-1-infected MT-4 cells) (EC50). Moreover, in the data set on HIV-1 (IIIB strain), the SI is recorded as more than 10. For the same compound, the CC50 with mock-infected MT-4 cells was more than 200 µM.
The matching figures for `Cc1c(Cc2c(F)cccc2F)nc(NCc2ccccc2)[nH]c1=O` [MC 1105]: 0.5 µM, 100 and 50 µM.
Taken in the same sequence, the figures for `CCC(C)Sc1nc(C(C)c2c(F)cccc2F)c(C)c(=O)[nH]1` (centres unmarked) [MC 1109] were 0.03 µM, 6,666 and 200 µM.
Taken in the same sequence, the figures for `CCC(C)Sc1nc(C(C)c2c(F)cccc2F)cc(=O)[nH]1` (centres unmarked) [MC 1110] were 0.03 µM, >6,666 and more than 200 µM.
`Cc1c(Cc2c(F)cccc2F)nc(NC(C)C)[nH]c1=O` [MC 1118] registered an EC50 in the data set on HIV-1 (IIIB strain) (HIV-1-infected MT-4 cells) of 0.03 µM. The SI in the data set with HIV-1 (IIIB strain) was 6,333. For the same compound, in the data set on mock-infected MT-4 cells, the CC50 was found to be 190 µM.
`CCNc1nc(Cc2c(F)cccc2F)cc(=O)[nH]1` [MC 1119] came in with a half-maximal effective concentration (EC50) with HIV-1 (IIIB strain) (HIV-1-infected MT-4 cells) of 0.8 µM. The compound further registered an SI in the data set with HIV-1 (IIIB strain) of more than 250. This compound returned a CC50 with mock-infected MT-4 cells of more than 200 µM.
Taken in the same sequence, the figures for `CCC(C)Nc1nc(Cc2c(F)cccc2F)c(C)c(=O)[nH]1` (centres unmarked) [MC 1130] were 0.07 µM, 2,857 and 200 µM.
In the data set on HIV-1 (IIIB strain) (setting [1]), `Cc1c(C(C)c2c(F)cccc2F)nc(SC(C)C)[nH]c1=O` (centres unmarked) [MC 1137] registered a half-maximal effective concentration (EC50) of 0.007 µM. Further, the midpoint of cytotoxicity with mock-infected MT-4 cells (MTT), the CC50, lay at 200 µM.
The matching figures for `CSCSc1nc(Cc2ccccc2)cc(=O)[nH]1` [MC 1140]: 20 µM and more than 200 µM.
Taken in the same sequence, the figures for `CSCSc1nc(Cc2c(F)cccc2F)c(C(C)C)c(=O)[nH]1` [MC 1145, 6-(2,6-Difluorophenyhnethyl)-3,4-dihydro-5-(1-methylethyl)-2-(methylthiomethyl) thiopyrimidin-4-(3H)-one] were 0.1 µM and 200 µM.
The matching figures for `Cc1c(C(C)c2c(F)cccc2F)nc(SCC(C)C)[nH]c1=O` (centres unmarked) [MC 1153]: 0.01 µM and more than 200 µM.
